Measured values from PubChem BioAssay AID256 (DTP/NCI, 2004).
Where “and” joins values, the source holds several entries; their conditions need not be identical. Equal entries are not always repeated. Toxic doses and inconclusive results are not listed. The calls were made as follows: active = survival T/C of 150% or more; inactive = T/C below 125% in these data.

System: CD2F1 mice, L1210 leukemia ip, survival T/C
Assay: NCI In Vivo Anticancer Drug Screen. Data for tumor model L1210 Leukemia (intraperitoneal) in CD2F1 (CDF1) mice
Settings: endpoint: mean survival time, higher = longer survival
Procedure, shortened: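 Each value reflects a quotient of treated over vehicle control outcomes in mice with a transplanted tumor.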

[1] = dose: 50.0 mg/kg/injection, schedule: Q01DX009 (ip), vehicle: saline with Tween-80
[2] = dose: 100.0 mg/kg/injection, schedule: Q01DX009 (ip), vehicle: saline with Tween-80
[3] = dose: 200.0 mg/kg/injection, schedule: Q01DX009 (ip), vehicle: saline with Tween-80
[4] = dose: 400.0 mg/kg/injection, schedule: Q01DX009 (ip), vehicle: saline with Tween-80
[5] = dose: 100.0 mg/kg/injection, schedule: Q01DX001 (ip), vehicle: saline
[6] = dose: 200.0 mg/kg/injection, schedule: Q01DX001 (ip), vehicle: saline
[7] = dose: 100.0 mg/kg/injection, schedule: Q04DX003 (ip), vehicle: other
[8] = dose: 200.0 mg/kg/injection, schedule: Q04DX003 (ip), vehicle: other
[9] = dose: 400.0 mg/kg/injection, schedule: Q04DX003 (ip), vehicle: other
[10] = dose: 100.0 mg/kg/injection, schedule: Q04DX003 (ip), vehicle: saline with Tween-80
[11] = dose: 200.0 mg/kg/injection, schedule: Q04DX003 (ip), vehicle: saline with Tween-80
[12] = dose: 25.0 mg/kg/injection, schedule: Q01DX001 (ip), vehicle: saline
[13] = dose: 25.0 mg/kg/injection, schedule: Q04DX002 (ip), vehicle: saline
[14] = dose: 50.0 mg/kg/injection, schedule: Q01DX001 (ip), vehicle: saline
[15] = dose: 50.0 mg/kg/injection, schedule: Q04DX002 (ip), vehicle: saline
[16] = dose: 100.0 mg/kg/injection, schedule: Q04DX003 (ip), vehicle: saline

Measured: T/C

c1ccc2c(c1)ncc1cc3c(cc12)[nH]c1ccccc13
inactive: dose: 100.0 mg/kg/injection, schedule: Q01DX001 (ip), vehicle: other 96 % of control | dose: 200.0 mg/kg/injection, schedule: Q01DX001 (ip), vehicle: other 101 % of control | dose: 400.0 mg/kg/injection, schedule: Q01DX001 (ip), vehicle: other 104 % of control

CC(C)(CCCO)c1cccc(Cl)c1
inactive: [1] 104 % of control | [2] 101 % of control | [3] 104 % of control

O=C1OC(OC(=O)c2ccccc2)C(Nc2ccccc2)=C1Br (stereo not drawn)
inactive: [2] 101 % of control | [3] 101 % of control | [4] 97 % of control

O=C(Nc1ccc(Cl)cc1)Oc1ccc2ccccc2c1
inactive: [5] 96 % of control | [6] 94 % of control | dose: 400.0 mg/kg/injection, schedule: Q01DX001 (ip), vehicle: saline 111 % of control

CCCCCCCCC(O)C(O)CCCCCCCC(=O)O (stereo not drawn)
inactive: [7] 93 % of control | [8] 98 % of control | [9] 95 % of control

Clc1ccccc1-c1nc2ccccc2[nH]1
inactive: dose: 50.0 mg/kg/injection, schedule: Q04DX003 (ip), vehicle: saline with Tween-80 98 % of control | [10] 96 % of control | [11] 96 % of control

CC1(C)SC2C(NC(=O)Cc3ccccc3)C(=O)N2C1C(=O)O (stereo not drawn)
inactive: [12] 97 % of control | [13] 97 % of control | [14] 100 % of control | [15] 100 % of control | [5] 100 % of control and 102 % of control | dose: 100.0 mg/kg/injection, schedule: Q04DX002 (ip), vehicle: saline 97 % of control and 100 % of control | dose: 200.0 mg/kg/injection, schedule: Q01DX001 (ip), vehicle: carboxymethylcellulose (CMC) 104 % of control | [6] 97 % of control and 100 % of control | dose: 200.0 mg/kg/injection, schedule: Q04DX002 (ip), vehicle: saline 102 % of control and 104 % of control | dose: 400.0 mg/kg/injection, schedule: Q01DX001 (ip), vehicle: carboxymethylcellulose (CMC) 100 % of control

CC1C2CCC(C2)C1C(=O)O (stereo not drawn)
inactive: [2] 98 % of control | [7] 94 % of control | [3] 94 % of control | [8] 87 % of control | [4] 86 % of control | [9] 90 % of control

Cc1cc(=O)n2cc(Br)ccc2n1
inactive: dose: 12.5 mg/kg/injection, schedule: Q01DX001 (ip), vehicle: saline 108 % of control | [12] 107 % of control | [14] 96 % of control

COc1ccc(C2(O)C3CCC2CC3)cc1 (stereo not drawn)
inactive: dose: 12.5 mg/kg/injection, schedule: Q04DX002 (ip), vehicle: saline with Tween-80 96 % of control | dose: 25.0 mg/kg/injection, schedule: Q04DX002 (ip), vehicle: saline with Tween-80 101 % of control | dose: 50.0 mg/kg/injection, schedule: Q04DX002 (ip), vehicle: saline with Tween-80 108 % of control

CC(C)CC(C)NCCO (stereo not drawn)
inactive: dose: 75.0 mg/kg/injection, schedule: Q01DX001 (ip), vehicle: saline 98 % of control | dose: 150.0 mg/kg/injection, schedule: Q01DX001 (ip), vehicle: saline 100 % of control

O=c1ccccn1C1CC(O)C(CO)O1 (stereo not drawn)
inactive: dose: 100.0 mg/kg/injection, schedule: Q01DX005 (ip), vehicle: saline 101 % of control | dose: 200.0 mg/kg/injection, schedule: Q01DX005 (ip), vehicle: saline 103 % of control

COCS(=O)[O-].[C-]#[O+].[C-]#[O+].[Fe+6].[c-]1[c-][c-][cH-][c-]1
inactive: dose: 12.5 mg/kg/injection, schedule: Q04DX002 (ip), vehicle: saline 101 % of control | [13] 93 % of control | [15] 96 % of control

C=C1C(=O)OC2CC(C)C3C=CC(=O)C3CC12 (stereo not drawn)
inactive: dose: 0.5 mg/kg/injection, schedule: Q01DX009 (ip), vehicle: Klucel (hydroxypropylcellulose) (HPC) 106 % of control | dose: 1.0 mg/kg/injection, schedule: Q01DX009 (ip), vehicle: Klucel (hydroxypropylcellulose) (HPC) 102 % of control | dose: 18.75 mg/kg/injection, schedule: Q01DX009 (ip), vehicle: Klucel (hydroxypropylcellulose) (HPC) 105 % of control

CC(CSc1ccccc1)NCCO (stereo not drawn)
inactive: dose: 25.0 mg/kg/injection, schedule: Q04DX003 (ip), vehicle: saline 95 % of control | dose: 50.0 mg/kg/injection, schedule: Q04DX003 (ip), vehicle: saline 94 % of control | [16] 100 % of control

CC(C)(C)OC(=O)N/N=C/c1ccc2c(c1)CCC2
inactive: dose: 100.0 mg/kg/injection, schedule: Q01DX001 (ip), vehicle: Klucel (hydroxypropylcellulose) (HPC) 101 % of control | dose: 200.0 mg/kg/injection, schedule: Q01DX001 (ip), vehicle: Klucel (hydroxypropylcellulose) (HPC) 101 % of control | dose: 400.0 mg/kg/injection, schedule: Q01DX001 (ip), vehicle: Klucel (hydroxypropylcellulose) (HPC) 104 % of control

COc1c(OC(C)=O)ccc(/C=C2\COC(C)=N2)c1[N+](=O)[O-]
inactive: [10] 96 % of control | [11] 102 % of control | dose: 400.0 mg/kg/injection, schedule: Q04DX003 (ip), vehicle: saline with Tween-80 92 % of control

C[n+]1cccc(C(=O)N/N=C/c2ccco2)c1
inactive: [16] 105 % of control | dose: 200.0 mg/kg/injection, schedule: Q04DX003 (ip), vehicle: saline 98 % of control | dose: 400.0 mg/kg/injection, schedule: Q04DX003 (ip), vehicle: saline 104 % of control

CC(c1ccccc1)N1CCCOP1(=O)N(CCCl)CCCl (stereo not drawn)
inactive: dose: 6.25 mg/kg/injection, schedule: Q01DX009 (ip), vehicle: other 103 % of control | dose: 12.5 mg/kg/injection, schedule: Q01DX009 (ip), vehicle: other 103 % of control and 94 % of control | dose: 25.0 mg/kg/injection, schedule: Q01DX009 (ip), vehicle: other 98 % of control and 94 % of control | dose: 31.3 mg/kg/injection, schedule: Q01DX001 (ip), vehicle: other 98 % of control and 112 % of control and 103 % of control | dose: 31.3 mg/kg/injection, schedule: Q01DX001 (ip), vehicle: saline + alcohol 101 % of control | dose: 50.0 mg/kg/injection, schedule: Q01DX009 (ip), vehicle: other 109 % of control and 94 % of control | dose: 62.5 mg/kg/injection, schedule: Q01DX001 (ip), vehicle: other 98 % of control and 100 % of control and 103 % of control | dose: 62.5 mg/kg/injection, schedule: Q01DX001 (ip), vehicle: saline + alcohol 94 % of control | dose: 100.0 mg/kg/injection, schedule: Q01DX009 (ip), vehicle: other 115 % of control and 96 % of control | dose: 125.0 mg/kg/injection, schedule: Q01DX001 (ip), vehicle: other 113 % of control and 108 % of control and 100 % of control | dose: 125.0 mg/kg/injection, schedule: Q01DX001 (ip), vehicle: saline + alcohol 97 % of control | dose: 200.0 mg/kg/injection, schedule: Q01DX009 (ip), vehicle: other 100 % of control | dose: 250.0 mg/kg/injection, schedule: Q01DX001 (ip), vehicle: other 107 % of control and 100 % of control and 103 % of control | dose: 250.0 mg/kg/injection, schedule: Q01DX001 (ip), vehicle: saline + alcohol 97 % of control | dose: 500.0 mg/kg/injection, schedule: Q01DX001 (ip), vehicle: other 100 % of control and 103 % of control | dose: 500.0 mg/kg/injection, schedule: Q01DX001 (ip), vehicle: saline + alcohol 91 % of control

CC(N)(CCC(=O)O)C(=O)O (stereo not drawn)
inactive: [2] 96 % of control | [3] 101 % of control

COc1cc(Cl)ccc1NC(=O)Nc1ccc(CCO)cc1
inactive: [1] 93 % of control | [2] 93 % of control

CCOC(=O)C(C)C(O)(c1ccccc1)c1ccccc1 (stereo not drawn)
inactive: dose: 100.0 mg/kg/injection, schedule: Q04DX003 (ip), vehicle: Klucel (hydroxypropylcellulose) (HPC) 95 % of control | dose: 200.0 mg/kg/injection, schedule: Q04DX003 (ip), vehicle: Klucel (hydroxypropylcellulose) (HPC) 101 % of control | dose: 400.0 mg/kg/injection, schedule: Q04DX003 (ip), vehicle: Klucel (hydroxypropylcellulose) (HPC) 95 % of control

O=C(O)C1CCc2c(cnn2-c2ccc(Cl)cc2)C1 (stereo not drawn)
inactive: dose: 100.0 mg/kg/injection, schedule: Q04DX002 (ip), vehicle: saline with Tween-80 96 % of control | dose: 200.0 mg/kg/injection, schedule: Q04DX002 (ip), vehicle: saline with Tween-80 103 % of control | dose: 400.0 mg/kg/injection, schedule: Q04DX002 (ip), vehicle: saline with Tween-80 103 % of control
